Assay results reported in patent US20100150887A1, “Tissue Progenitor Cells That Overexpress ERG” (priority 2007, published 2010).

Tested on: HERG overexpressing cells
Assay: Dofetilide responsiveness of action potentials
Details: action potential after 1, 2 or 3 minute treatment (FIGS. 3A-D)
Method: AP is shown with-out DOF (FIG. 3A), or after 1 minute (FIG. 3B), 2 minute (FIG. 3C), or 3 minute treatments (FIG. 3D).

CN(CCOc1ccc(NS(C)(=O)=O)cc1)CCc1ccc(NS(C)(=O)=O)cc1 [dofetilide, Dofetilide]
sensitivity to the effects of dofetilide: sensitive
